The text below walks through data of publication PMC10974732 (2024).

By IC50 is commonly meant the point on the concentration scale where inhibition reaches its midpoint. The low end stands for greater potency, the high end for weaker potency.

≈ marks a conversion by molar mass, not a printed value.

The test system of the test is 2B.N2A9 (DNA, aptamer) CATCTGCAGTGTGGCACCATGGGCATTGGGGGGCGAGGGTGGTTGGAGCGTTTGTGTGCGACGTGCTGAGCGTGAATTCGC
The experiment in a line: indirect competitive ELOSA (SA-HRP/TMB). To be noted: 37 °C, 1 h; 50 nM aptamer; competes with immobilised Neu5Gc-BSA (1 μg/mL coating).

As to `OC[C@H]1OC(O)[C@H](O)[C@@H](O)[C@@H]1O` (stereo partly shown), the concentration for half-maximal inhibition (IC50) is given as > 93,500.00 ng/mL.

For the compound `O=C(CO)N[C@H]1[C@H]([C@H](O)[C@H](O)CO)OC(O)(C(=O)O)C[C@@H]1O` (stereo partly shown), the IC50 was 9.35 ng/mL (≈ 0.0287 µM).

For the compound `CC(=O)N[C@H]1[C@H]([C@H](O)[C@H](O)CO)OC(O)(C(=O)O)C[C@@H]1O` (stereo partly shown), the IC50 came to 467.74 ng/mL (≈ 1.51 µM).

In turn, `O=C(O)C1(O)C[C@H](O)[C@@H](O)[C@H]([C@H](O)[C@H](O)CO)O1` (stereo partly shown) displayed an IC50 of 1659.58 ng/mL (≈ 6.19 µM).

`OC[C@H]1O[C@@](CO)(O[C@H]2O[C@H](CO)[C@@H](O)[C@H](O)[C@H]2O)[C@@H](O)[C@@H]1O`: the IC50 was > 93,500.00 ng/mL.

For the compound `OC[C@H]1O[C@H](O[C@H]2[C@H](O)[C@@H](O)C(O)O[C@@H]2CO)[C@H](O)[C@@H](O)[C@@H]1O` (stereo partly shown), the IC50 was > 93,500.00 ng/mL.

In the case of `CC(=O)N[C@@H]1C(O)O[C@H](CO)[C@@H](O)[C@@H]1O` (stereo partly shown), the IC50 is reported as 36,307.8 ng/mL.
